Test results published in patent US9050353B2, “Use of icariin and epimedium flavonoids containing icariin to treat diseases associated with myelin sheath lesion” (Xuanwu Hospital of Capital Medical University, priority 2010, dated 2015).

Experiments:
IL-1 = assay: Serum IL-1 content by ELISA, EAE mice; format: in vivo; details: positive control drug, dose not given
Method: (§1) Preparation of mice model and administration: experimental autoimmune encephalomyelitis (EAE) mice model is an important tool for studying various human demyelinating diseases of nervous system. In the present experiment, the preparation of EAE mice model was performed by immunizing female C57BL/6J mice with myelin sheath oligodendroglial cell surface glycoprotein MOG35-55. That is, the mice were subcutaneously injected at dorsal part of spinal column with 0.2 mL of MOG35-55 antigen elixir, and 0.2 ml of bordetella pertussis solution was intraperitoneally injected at the time of immunization injection and 48 h thereafter, respectively. Icariin was intragastrically administered after the last injection of bordetella pertussis solution, for consecutive 3 weeks.
(§2) Experimental objective: interleukin-1 (IL-1) and IL-6 are important inflammatory cytokines, and have promoting effects on inflammatory reactions. This experiment used enzyme linked immunosorbent assay (ELISA) to measure contents of IL-1 and IL-6 in serums of EAE mice model, and the effects of icariin on these contents were observed.
(§3) Experimental method: mice were anesthetized with pentobarbital sodium, blood sample was taken from abdominal aorta, stood at room temperature for 2 h, centrifuged at 3000 rpm for 20 min, and supernatant was taken, stored at −80° C. for use. The operation was performed strictly according to the steps of specification of ELISA kit. Optical density was measured with ELIASA at 450 nm. The corresponding contents of IL-1 and IL-6 were calculated with the measured OD values on standard curves.

IL-6 = assay: Serum IL-6 content by ELISA, EAE mice; format: in vivo; details: positive control drug, dose not given
Method: as §1, §2, §3

CNPase [1] = assay: Spinal cord CNPase by Western blot, EAE mice; format: in vivo; details: positive control drug, dose not given
Method: as §1
(§4) Experimental objective: myelin sheath is formed with prominences of oligodendroglial cells. CNPase, myelin basic protein (MBP) are marker proteins of mature oligodendroglial cells. The present experiment was to observe the expression of CNPase and MBP to represent the content of oligodendroglial cells in spinal cord of EAE model mice by Western blot method; and to study the effects of icariin on it.
(§5) Experimental method: the mice were anesthetized and sacrificed, fresh spinal cord was taken on ice, total protein was extracted by cleavage on ice, to prepare Western blot sample, added separately with CNPase, MBP primary antibodies and incubated, added with corresponding secondary antibodies, ECL colorated, Kodak film exposed. Pictures were analyzed with Image J software and standardized with β-actin.

[2] = system: myelin basic protein (MBP); assay: Spinal cord MBP by Western blot, EAE mice; format: in vivo; details: positive control drug, dose not given
Method: as §1, §4, §5

[3] = system: experimental autoimmune encephalomyelitis (EAE) rat model; assay: Nervous function damage score in EAE rat model; format: in vivo, Lewis rats; details: EAE rats, peak of attack; positive control drug, dose not given; scale 0-6
Method: (§6) Preparation of rat model and administration: experimental autoimmune encephalomyelitis (EAE) model is an important tool for studying various human demyelinating diseases of nervous system. In the example, the preparation of EAE rat model was performed by multipoint immunizing female Lewis rats subcutaneously at tail root with a homogenate of spinal cord and cerebral gray matter of Guinea pig as well as complete Freund's adjuvant after emulsification. They were intragastrically administered with Epimedium flavanoids for 3 weeks.
Nervous function test method: the ethological changes of rats were observed by two experimenters using blind method every day. Nervous function damage scoring standard: 0 score, absence of symptom; 1 score, decrease of tail tension, visible evident slight gait awkward; 2 score, double hind limbs weak, walk difficult; 3 score, double hind limbs paralysis; 4 score, double hind limbs paralysis and fore limbs weak; 5 score, four limbs paralysis; 6 score, near death or died.

IL-1β = IL-1β of spinal cord lumbar intumescentia by immunohistochemical method, EAE rats; format: in vivo; details: positive control drug, dose not given
Method: as §6
Experimental objective: interleukin 1β (IL-1β) is an important inflammatory cytokines, and has promoting effects on inflammatory reactions. This experiment used immunohistochemical method to measure the content of IL-1β in spinal cord lumbar intumescentia of EAE model group rat, and observed the effects of Epimedium flavanoids on the content.
Experimental method: rats were anesthetized with 10% chloral hydrate, fixed by perfusion of 4% paraformaldehyde, spinal cord tissue was taken for making frozen section. Incubated with IL-1β primary antibody, added with corresponding secondary antibody, third antibody, DAB developed, observed under microscope. Pictures were analyzed by Image Pro plus 5.0 software.

Malondialdehyde (MDA) = assay: MDA content of cerebral cortex, biochemical kit, EAE rats; format: in vivo; details: positive control drug, dose not given
Method: as §6
Experimental objective: the lipid peroxidation between oxygen free radicals and unsaturated fatty acids of cell membranes and organelle membranes results in the damage, degradation, denaturation and dysfunction of membrane phospholipids. Malondialdehyde (MDA) is a metabolic product of lipid peroxidation, and the increase of MDA indicates the enhancement of lipid peroxidation, which may lead to damage of nerve cells and myelin sheath. Superoxide dismutase (SOD) can scavenge superoxide anions and is an important antioxidase in vivo. In this experiment, SOD activity and MDA content of brain tissues in EAE rat model were measured by biochemistry method, and the effects of Epimedium flavanoids on changes thereof were observed. […]

CNPase [4] = assay: Cerebral cortex CNPase content by Western blot, EAE rats; format: in vivo; details: positive control drug, dose not given
Method: as §6
Experimental objective: myelin sheath is formed with prominences of oligodendroglial cells. […] In this experiment, CNPase content of cerebral cortex in EAE rat model was measured by Western blot method, CNPase content of spinal cord lumbar intumescentia was measured by immunohistochemical method; and the effects of Epimedium flavanoids on these contents were observed.
Experimental method: rats were anesthetized and sacrificed, cerebral cortex was taken, total protein was extracted by ice cleavage for making Western blot sample, added with CNPase primary antibody and incubated, added with corresponding secondary antibody, ECL colorated, Kodak film exposed. Pictures were analyzed by Image J software and standardized with β-actin (as internal reference).

CNPase [5] = assay: CNPase positive cells of spinal cord lumbar intumescentia by immunohistochemical method, EAE rats; format: in vivo; details: positive control drug, dose not given
Method: as §6
Experimental objective: myelin sheath is formed with prominences of oligodendroglial cells. 2′3′-cyclic […]-3′-phosphodiesterase (CNPase) is a marker protein of mature oligodendroglial cells. In this experiment, CNPase content of cerebral cortex in EAE rat model was measured by Western blot method, CNPase content of spinal cord lumbar intumescentia was measured by immunohistochemical method; and the effects of Epimedium flavanoids on these contents were observed.
Experimental method: the rats were anesthetized with 10% chloral hydrate on the 14th day of experiment, fixed by perfusion of 4% paraformaldehyde, spinal cord tissues were taken for frozen section. […] Pictures were analyzed using Image Pro plus5.0 software to count positive cells.

CC(=O)OCC(=O)[C@@]1(O)CC[C@H]2[C@@H]3CCC4=CC(=O)C=C[C@]4(C)[C@H]3C(=O)C[C@@]21C [prednisone acetate]
IL-1 content (IL-1): 0.115 ± 0.001 pg/mL
IL-6 content (IL-6): 0.121 ± 0.010 pg/mL
CNPase/actin Integration grey level (CNPase [1]): 1.20 ± 0.01
MBP/actin Integration grey level [2]: 1.05 ± 0.11
Nervous function damage score [3]: 0.83 ± 0.48
IL-1β Accumulative optical density (IL-1β): 115.5 ± 8.6 ×10^3
IL-1β Positive cell number (IL-1β): 672 ± 48
MDA content (Malondialdehyde (MDA)): 1.03 ± 0.09 nmol/mg protein
CNPase/actin Integration grey level (CNPase [4]): 1.33 ± 0.06
CNPase positive cell count (CNPase [5]): 1378.2 ± 125.4
